Test results taken from the supplement of paper PMC11061612.

Legend:
AZD7648 = compound: Cc1cc2ncnn2cc1Nc1ncc2c(n1)n(C1CCOCC1)c(=O)n2C [AZD7648]; details: max 10 µM
Outline: (§1)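 In 1536-well plates, cancer cell lines in 7.5 μl DMEM/F12 or RPMI with 10% FBS spent 24 hours at 37°C and 5% CO2 and were then dosed for 72 hours with final DMSO typically 0.2%. Viability was read by CellTiter-Glo 2.0 luminescence and scaled between blank-well and DMSO-well means. The single-agent IC50 was fitted from dose responses using a logistic curve in a non-linear mixed effects model, and that logistic curve had two parameters.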

MK-2206 = compound: NC1(c2ccc(-c3nc4ccn5c(=O)[nH]nc5c4cc3-c3ccccc3)cc2)CCC1 [MK-2206]; details: max 10 µM
Outline: as §1

SRA737 = compound: N#Cc1cnc(Nc2cc(NC[C@H]3CNCCO3)c(C(F)(F)F)cn2)cn1 [SRA737]; details: max 10 µM
Outline: as §1

Carboplatin = compound: C1CC(C1)(C(=O)[O-])C(=O)[O-].N.N.[Pt+2] [Carboplatin]; details: max 10 µM
Outline: as §1

Doxorubicin = compound: COc1cccc2c1C(=O)c1c(O)c3c(c(O)c1C2=O)C[C@@](O)(C(=O)CO)C[C@@H]3O[C@H]1C[C@H](N)[C@H](O)[C@H](C)O1 [Doxorubicin]; details: max 1 µM
Outline: as §1

Selumetinib = compound: Cn1cnc2c(F)c(Nc3ccc(Br)cc3Cl)c(C(=O)NOCCO)cc21 [Selumetinib]; details: max 10 µM
Outline: as §1

Savolitinib = compound: C[C@@H](c1ccc2nccn2c1)n1nnc2ncc(-c3cnn(C)c3)nc21 [Savolitinib]; details: max 1 µM
Outline: as §1

Dasatinib = compound: CC1=C(C(=CC=C1)Cl)NC(=O)C2=CN=C(S2)NC3=CC(=NC(=N3)C)N4CCN(CC4)CCO [Dasatinib]; details: max 2 µM
Outline: as §1

Taselisib = compound: Cc1nc(-c2cn3c(n2)-c2ccc(-c4cnn(C(C)(C)C(N)=O)c4)cc2OCC3)n(C(C)C)n1 [Taselisib]; details: max 10 µM
Outline: as §1

AZD1390 = compound: CC(C)n1c(=O)n(C)c2cnc3cc(F)c(-c4ccc(OCCCN5CCCCC5)nc4)cc3c21 [AZD1390]; details: max 0.3 µM
Outline: as §1

AZD5363 = compound: C1CN(CCC1(C(=O)N[C@@H](CCO)C2=CC=C(C=C2)Cl)N)C3=NC=NC4=C3C=CN4 [AZD5363]; details: max 10 µM
Outline: as §1

Etoposide = compound: COc1cc([C@@H]2c3cc4c(cc3[C@@H](O[C@@H]3O[C@@H]5CO[C@@H](C)O[C@H]5[C@H](O)[C@H]3O)[C@H]3COC(=O)[C@H]23)OCO4)cc(OC)c1O [Etoposide]; details: max 10 µM
Outline: as §1

Trametinib = compound: CC(=O)Nc1cccc(-n2c(=O)n(C3CC3)c(=O)c3c(Nc4ccc(I)cc4F)n(C)c(=O)c(C)c32)c1 [Trametinib]; details: max 1 µM
Outline: as §1

AZD0156 = compound: CN(C)CCCOc1ccc(-c2ccc3ncc4c(c3c2)n(C2CCOCC2)c(=O)n4C)cn1 [AZD0156]; details: max 3 µM
Outline: as §1

AZD6738 = compound: C[C@@H]1COCCN1C2=NC(=NC(=C2)C3(CC3)[S@](=N)(=O)C)C4=C5C=CNC5=NC=C4 [AZD6738]; details: max 10 µM
Outline: as §1

Lapatinib = compound: CS(=O)(=O)CCNCc1ccc(-c2ccc3ncnc(Nc4ccc(OCc5cccc(F)c5)c(Cl)c4)c3c2)o1 [Lapatinib]; details: max 10 µM
Outline: as §1

Paclitaxel = compound: CC(=O)O[C@H]1C(=O)[C@@]2(C)[C@H]([C@H](OC(=O)c3ccccc3)[C@]3(O)C[C@H](OC(=O)[C@H](O)[C@@H](NC(=O)c4ccccc4)c4ccccc4)C(C)=C1C3(C)C)[C@]1(OC(C)=O)CO[C@@H]1C[C@@H]2O [Paclitaxel]; details: max 3 µM
Outline: as §1

Crizotinib = compound: C[C@@H](Oc1cc(-c2cnn(C3CCNCC3)c2)cnc1N)c1c(Cl)ccc(F)c1Cl [Crizotinib]; details: max 10 µM
Outline: as §1

Gefitinib = compound: COc1cc2ncnc(Nc3ccc(F)c(Cl)c3)c2cc1OCCCN1CCOCC1 [Gefitinib]; details: max 10 µM
Outline: as §1

Olaparib = compound: O=C(c1cc(Cc2n[nH]c(=O)c3ccccc23)ccc1F)N1CCN(C(=O)C2CC2)CC1 [Olaparib]; details: max 10 µM
Outline: as §1

Alisertib = compound: COc1cc(Nc2ncc3c(n2)-c2ccc(Cl)cc2C(c2c(F)cccc2OC)=NC3)ccc1C(=O)O [Alisertib]; details: max 10 µM
Outline: as §1

Palbociclib = compound: CC(=O)c1c(C)c2cnc(Nc3ccc(N4CCNCC4)cn3)nc2n(C2CCCC2)c1=O [Palbociclib]; details: max 10 µM
Outline: as §1

Venetoclax = compound: CC1(C)CCC(CN2CCN(c3ccc(C(=O)NS(=O)(=O)c4ccc(NCC5CCOCC5)c([N+](=O)[O-])c4)c(Oc4cnc5[nH]ccc5c4)c3)CC2)=C(c2ccc(Cl)cc2)C1 [Venetoclax]; details: max 1 µM
Outline: as §1

SG3199 = compound: CC1=CN2[C@@H](C1)C=NC3=CC(=C(C=C3C2=O)OC)OCCCCCOC4=C(C=C5C(=C4)N=C[C@@H]6CC(=CN6C5=O)C)OC [SG3199]; details: max 0.001 µM
Outline: as §1

AZD2811 = compound: CCN(CCO)CCCOc1ccc2c(Nc3cc(CC(=O)Nc4cccc(F)c4)[nH]n3)ncnc2c1 [AZD2811]; details: max 1 µM
Outline: as §1

AZD1775 = compound: C=CCn1c(=O)c2cnc(Nc3ccc(N4CCN(C)CC4)cc3)nc2n1-c1cccc(C(C)(C)O)n1 [AZD1775]; details: max 3 µM
Outline: as §1

Prexasertib = compound: COc1cccc(OCCCN)c1-c1cc(Nc2cnc(C#N)cn2)n[nH]1 [Prexasertib]; details: max 1 µM
Outline: as §1

[1] = compound: O=C(Nc1ccc2[nH]nc(-c3ccncc3)c2c1)[C@@H]1CCN(CC(=O)N2CCN(c3ccc(-c4ncccn4)cc3)CC2)C1; details: max 5 µM
Outline: as §1

Gemcitabine = compound: Nc1ccn([C@@H]2O[C@H](CO)[C@@H](O)C2(F)F)c(=O)n1 [Gemcitabine]; details: max 0.3 µM
Outline: as §1

AZD8186 = compound: C[C@@H](Nc1cc(F)cc(F)c1)c1cc(C(=O)N(C)C)cc2c(=O)cc(N3CCOCC3)oc12 [AZD8186]; details: max 10 µM
Outline: as §1

AZD5153 = compound: COc1nnc2ccc(N3CCC(c4ccc(OCCN5CCN(C)C(=O)[C@H]5C)cc4)CC3)nn12 [AZD5153]; details: max 1 µM
Outline: as §1

5-Fluorouracil = compound: O=c1[nH]cc(F)c(=O)[nH]1 [5-Fluorouracil]; details: max 20 µM
Outline: as §1

SN-38 = compound: CCc1c2c(nc3ccc(O)cc13)-c1cc3c(c(=O)n1C2)COC(=O)[C@]3(O)CC [SN-38]; details: max 0.3 µM
Outline: as §1

AZD5991 = compound: Cc1c2c(nn1C)CSCc1cc(n(C)n1)CSc1cc(c3ccccc3c1)OCCCc1c(C(=O)O)n(C)c3c-2c(Cl)ccc13 [AZD5991]; details: max 1 µM
Outline: as §1

AZD4320 = compound: CN(CC[C@H](CSC1=CC=CC=C1)NC2=C(C=C(C=C2)S(=O)(=O)NC(=O)C3=CC=C(C=C3)N4CCC(CC4)[C@H](C5=CC=CC=C5C6=CC=C(C=C6)Cl)O)S(=O)(=O)C(F)(F)F)CCO [AZD4320]; details: max 1 µM
Outline: as §1

Cell Line | IC50, cell viability 72 h (AZD7648) | IC50, cell viability 72 h (MK-2206) | IC50, cell viability 72 h (SRA737) | IC50, cell viability 72 h (Carboplatin) | IC50, cell viability 72 h (Doxorubicin) | IC50, cell viability 72 h (Selumetinib) | IC50, cell viability 72 h (Savolitinib) | IC50, cell viability 72 h (Dasatinib) | IC50, cell viability 72 h (Taselisib) | IC50, cell viability 72 h (AZD1390) | IC50, cell viability 72 h (AZD5363) | IC50, cell viability 72 h (Etoposide) | IC50, cell viability 72 h (Trametinib) | IC50, cell viability 72 h (AZD0156) | IC50, cell viability 72 h (AZD6738) | IC50, cell viability 72 h (Lapatinib) | IC50, cell viability 72 h (Paclitaxel) | IC50, cell viability 72 h (Crizotinib) | IC50, cell viability 72 h (Gefitinib) | IC50, cell viability 72 h (Olaparib) | IC50, cell viability 72 h (Alisertib) | IC50, cell viability 72 h (Palbociclib) | IC50, cell viability 72 h (Venetoclax) | IC50, cell viability 72 h (SG3199) | IC50, cell viability 72 h (AZD2811) | IC50, cell viability 72 h (AZD1775) | IC50, cell viability 72 h (Prexasertib) | IC50, cell viability 72 h [1] | IC50, cell viability 72 h (Gemcitabine) | IC50, cell viability 72 h (AZD8186) | IC50, cell viability 72 h (AZD5153) | IC50, cell viability 72 h (5-Fluorouracil) | IC50, cell viability 72 h (SN-38) | IC50, cell viability 72 h (AZD5991) | IC50, cell viability 72 h (AZD4320)
PEO1 (Ovarian Carcinoma) | > 10000 nM | > 10000 nM | > 10000 nM | > 10000 nM | > 1000 nM | > 10000 nM | > 1000 nM | > 2000 nM | 8190 nM | > 300 nM | > 10000 nM | > 10000 nM | > 1000 nM | > 3000 nM | > 10000 nM | > 10000 nM | 52.9 nM | > 10000 nM | > 10000 nM | > 10000 nM | > 10000 nM | > 10000 nM | > 1000 nM | > 1 nM | > 1000 nM | 1540 nM | > 1000 nM | > 5000 nM | > 300 nM | > 10000 nM | > 1000 nM | > 20000 nM | 57.3 nM | > 1000 nM | > 1000 nM
SK-HEP-1 (Hepatocellular Carcinoma) | > 10000 nM | 6200 nM | > 10000 nM | > 10000 nM | 698 nM | > 10000 nM | > 1000 nM | > 2000 nM | > 10000 nM | > 300 nM | > 10000 nM | 7400 nM | > 1000 nM | > 3000 nM | > 10000 nM | > 10000 nM | 45.4 nM | > 10000 nM | > 10000 nM | > 10000 nM | > 10000 nM | 9050 nM | > 1000 nM | > 1 nM | > 1000 nM | > 3000 nM | > 1000 nM | > 5000 nM | > 300 nM | > 10000 nM | > 1000 nM | > 20000 nM | 83.5 nM | > 1000 nM | > 1000 nM
SW620 (Colorectal Carcinoma) | > 10000 nM | > 10000 nM | > 10000 nM | > 10000 nM | 640 nM | 911 nM | > 1000 nM | > 2000 nM | > 10000 nM | > 300 nM | > 10000 nM | 3420 nM | 39.6 nM | > 3000 nM | > 10000 nM | > 10000 nM | 116 nM | > 10000 nM | > 10000 nM | > 10000 nM | > 10000 nM | > 10000 nM | > 1000 nM | > 1 nM | > 1000 nM | 1140 nM | 306 nM | 928 nM | 97.6 nM | > 10000 nM | > 1000 nM | > 20000 nM | 32.2 nM | > 1000 nM | > 1000 nM
WM1552C (Melanoma) | > 10000 nM | > 10000 nM | 6180 nM | > 10000 nM | > 1000 nM | 7990 nM | > 1000 nM | 1810 nM | 8740 nM | > 300 nM | > 10000 nM | > 10000 nM | 158 nM | > 3000 nM | > 10000 nM | > 10000 nM | 51.5 nM | 6260 nM | > 10000 nM | > 10000 nM | 7480 nM | > 10000 nM | > 1000 nM | > 1 nM | > 1000 nM | 1760 nM | 34.4 nM | > 5000 nM | 52.2 nM | > 10000 nM | > 1000 nM | > 20000 nM | 152 nM | 759 nM | > 1000 nM
